Measurements reported in ChEMBL document CHEMBL1821710, “Synthesis and antiproliferative evaluation of 3,5-disubstituted 1,2,4-triazoles containing flurophenyl and trifluoromethanephenyl moieties” (2011).

Legend:
Type in all cases: functional
[1] = Growth inhibition of human NPC-TW01 cells after 72 hrs by MTT assay; conditions: NPC-TW01, 72 h
NCI-H226 = assay: Growth inhibition of human NCI-H226 cells after 72 hrs by MTT assay; conditions: NCI-H226, 72 h
Jurkat = assay: Growth inhibition of human Jurkat cells after 72 hrs by MTT assay

Row | SMILES | GI50 [1] [µM] | GI50 (NCI-H226) [µM] | GI50 (Jurkat) [µM]
1 | COC(=O)c1nc(C2CCCCC2)n(-c2ccc(F)cc2)n1 | 30.5 | 6.26 | > 100
2 | COC(=O)c1nc(-c2ccsc2)n(-c2ccc(C(F)(F)F)cc2)n1 | 34.9 | 5.74 | > 100
3 | COC(=O)c1nc(-c2ccoc2)n(-c2ccc(C(F)(F)F)cc2)n1 | > 100 | 6.01 | 97.2
4 | COC(=O)c1nc(-c2ccccc2)n(-c2ccc(F)cc2)n1 | 15.6 | 89.3 | 10
5 | COC(=O)c1nc(C)n(-c2cccc(C(F)(F)F)c2)n1 | > 100 | 14.3 | 10.6
6 | COC(=O)c1nc(-c2ccc[nH]2)n(-c2ccc(F)cc2)n1 | 9.58 | 72 | 9.01
7 | COC(=O)c1nc(C(C)C)n(-c2ccc(F)cc2)n1 | > 100 | 6.17 | > 100
8 | CCc1nc(C(=O)OC)nn1-c1ccc(F)cc1 | 15.8 | 71.3 | 11
9 | COC(=O)c1nc(C2CCCCC2)n(-c2ccc(C(F)(F)F)cc2)n1 | > 100 | 5.76 | > 100
10 | COC(=O)c1nc(C)n(-c2ccc(Cl)cc2)n1 | 17.5 | 84 | 65.9
11 | COC(=O)c1nc(C)n(-c2ccc(F)cc2)n1 | 15.2 | 11.7 | 8.7
12 | CCOC(=O)c1nc(-c2ccc[nH]2)n(-c2ccc(F)cc2)n1 | 64.3 | 5.71 | > 100
13 | COC(=O)c1nc(C)n(-c2ccc(C(F)(F)F)cc2)n1 | > 100 | 16.6 | 9.1
14 | COC(=O)c1nc(C)n(-c2ccccc2C(F)(F)F)n1 | > 100 | 6.13 | > 100
15 | CCCCc1nc(C(=O)OC)nn1-c1ccc(F)cc1 | > 100 | 6.4 | > 100
16 | COC(=O)c1nc(-c2ccc3ccccc3c2)n(-c2ccc(F)cc2)n1 | > 100 | 79.3 | 18.5
17 | COC(=O)c1nc(C2CCCC2)n(-c2ccc(F)cc2)n1 | 10.4 | 70.5 | 9.55
18 | COC(=O)c1nc(-c2ccc[nH]2)n(-c2ccc(C(F)(F)F)cc2)n1 | > 100 | 5.65 | > 100
19 | COC(=O)c1nc(C)n(-c2ccc(OC)cc2)n1 | 9.92 | > 100 | > 100
20 | COC(=O)c1nc(-c2ccsc2)n(-c2ccc(F)cc2)n1 | 10.7 | 6.94 | 54
21 | COC(=O)c1nc(C2CCCC2)n(-c2ccc(C(F)(F)F)cc2)n1 | 56.4 | 5.71 | > 100
22 | CCOC(=O)c1nc(-c2ccc[nH]2)n(-c2ccc(C(F)(F)F)cc2)n1 | 76.4 | 5.61 | > 100
23 | COC(=O)c1nc(C)n(-c2ccccc2)n1 | > 100 | > 100 | > 100
24 | COC(=O)c1nc(C)n(-c2cccc(Br)c2)n1 | > 100 | 7.35 | > 100
25 | CN(Cc1cnc2nc(N)nc(N)c2n1)c1ccc(C(=O)N[C@@H](CCC(=O)O)C(=O)O)cc1 [METHOTREXATE] | 0.1 | 10.2 | 1.25
26 | COC(=O)c1nc(-c2ccoc2)n(-c2ccc(F)cc2)n1 | 11.7 | 91.6 | 9.32
27 | COC(=O)c1nc(C2CC2)n(-c2ccc(F)cc2)n1 | 95.9 | 16.3 | 9.42
